Reference: patent publication US20240335421A1, “ANETHOLE TRITHIONE FOR THE TREATMENT OF VASCULITIDES” (FRÉDÉRIC MARIN, priority 2021, published 2024)

Assays:
[1] = test system: pulmonary arterial rings from rats with PH; assay: Chronic endothelium dysfunction by hypobaric hypoxia, in vivo minipump treatment, ex vivo 5-HT reactivity; conditions: 3 weeks hypobaric hypoxia, ATT 0.7 mg/mL by abdominal minipump, no ATT in the organ bath, FIG. 4
Method: In order to investigate the protective effects of ATT on chronic endothelium damage, rats were housed during 3 weeks in hypobaric hypoxia chambers (50 kPa or 10% O2).
Continuous treatment was induced through a minipump placed in the abdominal cavity to deliver ATT (0.7 mg/mL) or its placebo (sulfobutylether beta-cyclodextrin) during the whole hypoxia.
After euthanasia of the animal, pulmonary arterial rings were placed in an organ bath and the reactivity of the vessel was investigated by using cumulative concentration-response curve with 5-HT (10 nM to 100 μM). This ex vivo part of the study was conducted without any addition of ATT in the organ bath, meaning that the effect was exclusively related to the chronic in vivo treatment through the minipump.

[2] = test system: TNF-α production in LPS-activated macrophages; assay: TNF-α production by LPS-activated human macrophages (ELISA); format: cell-based; conditions: ATT 10 μM, LPS 1 μg/mL, 48 hours, FIG. 1A
Method: (§1) CD14^+ human macrophages isolated from healthy donors were cultured with LPS (1 μg/mL) and ATT (10 μM) for 48 hours. At the end of the culture, the supernatants were collected and cytokine production was evaluated.
(§2) Production of TNF-α was measured by ELISA. Production of TNF-α and IL-10 were measured using a multiplex detection technique.

[3] = test system: pulmonary arterial rings; assay: 5-HT contractile reactivity of pulmonary arterial rings with endothelium dysfunction (organ bath); parameters: species or system Wistar rats; conditions: ATT 10 μM, 30 minutes preincubation
Method: (§3) Intrapulmonary arteries of the first order (IPA1) of Wistar rats (male, 300 g) were divided into short tubular segments with an external diameter of ≈1.5-2 mm and used for isometric contraction measurement.
(§4) Arterial rings were mounted in isolated organ bath systems (EMKA Technologies), containing Krebs solution (118 mM NaCl, 4.7 mM KCl, 1.2 mM MgSO4, […], 1.2 mM KH2PO4, 2.5 mM CaCl2), and 11 mM D-glucose, pH 7.4) at 37° C. and bubbled continuously with […].
(§5) Arterial rings were stretched to a basal tension of 0.8 to 1.0 g according to their diameter. Tissues were allowed to equilibrate for 1 hour in Krebs solution and washed out every 15 minutes. A high KCl solution (80 mM) was applied in order to obtain a reference contraction used to normalize subsequent contractile responses.
(§6) At the end of the experiment, endothelial function was tested on each ring by examining the relaxation induced by carbamylcholine, a potent vascular relaxing agent (100 μM; Sigma) on 1 μM or 30 nM Phe-induced pre-constricted pulmonary arterial rings. Passive and active mechanical properties were assessed using transducer systems, coupled to IOX2 software (v2.10.8, EMKA technologies, Paris, France) in order to facilitate data acquisition and analysis. Data were then analyzed using two-way ANOVA with Bonferroni post-tests (Prism 5 v.5.01).
Contractile responses were tested by constructing a cumulative concentration-response curve (CCRC) to 5-hydroxytryptamine [5-HT] (10 nM to 100 μM; Sigma). When indicated, tissues were preincubated during 30 minutes with ATT (10 μM), and then CCRC to 5-HT was performed in the presence or absence of the drug.
Evaluation of the role of endothelium on ATT effect was assessed using N^ω-nitro-L-arginine methyl ester [L-NAME] (100 μM, 30 minutes preincubation; Sigma) to inhibit nitric oxide-dependent relaxation, or 3-[(3-cholamidopropyl) dimethylammonio]-1-propanesulfonate [CHAPS] (0.3% in water, perfusion before mounting; Sigma) to physically damage the endothelium.

[4] = test system: IL-10 production by LPS-activated human macrophages; assay: IL-10 production by LPS-activated human macrophages (multiplex detection); format: cell-based; conditions: ATT 10 μM, LPS 1 μg/mL, 48 hours, multiplex assay, FIG. 1C
Method: as §1, §2

[5] = test system: pulmonary arterial rings; assay: Relaxation of phenylephrine pre-constricted pulmonary arterial rings (organ bath); parameters: species or system Wistar rats
Method: as §3, §4, §5
Relaxation was assessed by injecting ATT (10 μM) on phenylephrine [Phe] (30 nM; Sigma) pre-constricted pulmonary arterial rings when contraction reached its steady-state.
as §6, with “The role” for “At the end”, “endothelium on ATT relaxant effect was assessed as aforementioned with L-NAME pre-incubation or CHAPS perfusion. Endothelial” for “the experiment, endothelial”, “100 μM carbamylcholine (Sigma)” for “carbamylcholine, a potent vascular relaxing agent (100 μM; Sigma)”

[6] = test system: Adult human primary ventricular cardiomyocytes; assay: Human primary cardiomyocyte contractility assay after exposure to Kawasaki patient serum; format: cell-based; conditions: 12 hours exposure to KD serum + ATT 1 μM
Method: Adult human primary ventricular cardiomyocytes were isolated from two healthy donors by AnaBios (San Diego, USA), using their CardioPRIME™ proprietary protocol.
These isolated cardiomyocytes were exposed for 12 hours to serum obtained from Kawasaki patients in acute crisis (between 2-6 days), supplemented or not with 1 μM of ATT. In parallel, cardiomyocytes were exposed to serum from Wegener's disease patients or from convalescent Kawasaki patients, under the same conditions.
The CardioPRIME™ protocol, run on a MultiCell platform by IonOptix, allows to measure several parameters. Upon electrical field stimulation to elicit contractions (tracked by the shape change in individual cardiomyocytes under optical bright field microscopy), the contractility transients could be analyzed for changes in contraction in the different conditions (amplitude of sarcomere shortening, peak height, maximum sarcomere departure velocity, maximum sarcomere return velocity, and decay time to 30% and 90% relaxation).

[7] = test system: TNF-α production by LPS-activated human macrophages; assay: TNF-α production by LPS-activated human macrophages (multiplex detection); format: cell-based; conditions: ATT 10 μM, LPS 1 μg/mL, 48 hours, multiplex assay, FIG. 1B
Method: as §1, §2

SMILES | hyper-reactivity of the vessel induced by 5-HT after chronic hypoxia [1] | production of TNF-α vs. LPS-activated condition [2] | 5-HT concentration response curve and maximum efficacy in presence of ATT and CHAPS ([3]; CHAPS 0.3%, compared with normal endothelium function, FIG. 2A) | 5-HT concentration response curve with L-NAME ([3]; L-NAME 100 μM, FIG. 2B) | maximum effect of 5-HT with L-NAME ([3]; L-NAME 100 μM, FIG. 2B) | production of IL-10 [4] | amplitude of relaxation, ATT vs. CHAPS+ATT ([5]; ATT 10 μM on 30 nM phenylephrine pre-constricted rings, FIG. 3) | effect of pre-treatment with L-NAME or CHAPS on the relaxation mediated by the substance ([5]; ATT 10 μM on 30 nM phenylephrine pre-constricted rings, L-NAME 100 μM or CHAPS 0.3%, FIG. 3) | loss of contractility (peak height, sarcomere shortening, maximum sarcomere departure velocity) ([6]; FIGS. 6A-C) | loss of relaxation (maximum sarcomere return velocity, decay time to 90% and 30% relaxation) ([6]; FIGS. 6D-F) | TNF-α level in LPS-activated human macrophages [7] | relaxation under endothelium dysfunctions induced by L-NAME or CHAPS ([5]; carbamylcholine 100 μM, Phe pre-constricted rings, data not shown)
COc1ccc(-c2cc(=S)ss2)cc1 [ATT, 5-(4-methoxyphenyl)-3H-1,2-dithiole-3-thione] | fully abolished | −88% | not significantly different | markedly shifted | significantly reduced | −60.3% | similar | failed 1 to affect | prevent this loss of contractility | prevent the loss of relaxation | −51.2% | 
C[N+](C)(C)CCOC(N)=O.[Cl-] [carbamylcholine] |  |  |  |  |  |  |  |  |  |  |  | fully abolished
